# Measured values as given in patent US20030119728A1, “Stable, nasally, orally or sublingually applicable pharmaceutical preparation” (priority 2000, published 2003).
# Test: Preliminary study of desmopressin preparations with various pH values, 6 weeks at 50° C. in glass flasks
# Type: physicochemical
# Details: pH 1.0-7.0 tested, desmopressin content and sum of G1-G4
# Description: Desmopressin preparations with various pH values (1.0, 2.0, 3.0, 4.0, 5.0, 6.0, and 7.0) were investigated for these preliminary studies. These solutions were stored in glass flasks for 6 weeks at 50° C. and then analysed in the usual way with the use of analytical columns. After 6 weeks the pH values of the seven solutions were unchanged.
compound,measurement,value
"NC(=O)CC[C@@H]1NC(=O)[C@H](Cc2ccccc2)NC(=O)[C@H](Cc2ccc(O)cc2)NC(=O)CCSSC[C@@H](C(=O)N2CCC[C@H]2C(=O)N[C@H](CCCN=C(N)N)C(=O)NCC(N)=O)NC(=O)[C@H](CC(N)=O)NC1=O [desmopressin, 1-deamino-8-D-arginine-vasopressin]",pH region in which desmopressin is most stable,~5.0
